In patent US20260240845A1, “METHODS FOR TREATING OR PREVENTING CORONAVIRUS INFECTION SKELETAL SEQUELAE” (priority 2023, published 2026):
“Also recorded” adds a separate entry of the source.

Legend:
[1] = system: SARS-COV-2-infected hamsters; parameters: species or system golden Syrian hamsters (Mesocricetus auratus); conditions: hamster, in vivo
[2] = system: C28/12; test: Rescue effect of macitentan on SP RBD-induced oxidative stress and mitochondrial dynamics in chondrocytes (CellROX, MitoTracker); format: cell-based, human; conditions: C28/12 pre-treated with 10 μM Macitentan for 30 minutes, then SP RBD 10 μg/ml for 1 h
Protocol: Chondrocyte cell lines C28/12 (human), ATDC5 (mouse) and human umbilical vein endothelial cells (HUVEC) were received as gifts from Prof. Danny Chan from the University of Hong Kong, Prof. Limin Rong from Sun Yat-Sen University and Prof.
Mo Yang from the Hong Kong Polytechnic University respectively. Both chondrocyte cell lines were maintained in DMEM/F12 culture medium supplemented with 5% heat-inactivated FBS, 50 U ml^−1 penicillin and 50 μg ml-^1 streptomycin. HUVEC were cultured in endothelial cell medium with 1% endothelial cell growth supplement and 1% antibiotic solution (ScienCell).
To investigate the rescue effect of Macitentan on RBD-induced oxidative stress accumulation and change in mitochondrial dynamics, cells seeded on coverslips were pre-treated with 10 μM Macitentan for 30 minutes before adding RBD for an hour.
To evaluate cellular oxidative stress, CellROX® Deep Red Reagent solution (Invitrogen) was used according to the manufacturer's instructions. Positive signal was visualized by excitation/emission at 640/665 nm. For visualising mitochondrial morphology, we stained the cells using Mito Tracker® Red CMXRos (Invitrogen) with excitation/emission at 579/599 nm. Cells were then counterstained and mounted by ProLong® Gold antifade reagent with 4′, 6-diamidino-2-phenylindole (DAPI). All the images were captured using Leica TCS SPE Confocal microscope.

[3] = system: SARS-COV-2-infected hamsters; parameters: species or system golden Syrian hamsters (Mesocricetus auratus); conditions: hamster, in vivo; remark: listed apart in the source
[4] = system: mice injected with SP RBD; parameters: species or system Balb/c mice; conditions: mouse, in vivo

CCCNS(=O)(=O)Nc1ncnc(OCCOc2ncc(Br)cn2)c1-c1ccc(Br)cc1 [macitentan]
BMD in tibial epiphysis (micro-CT) [1]: improvement in subchondral bone mass and microstructure; also recorded: significant increase in BMD and BV/TV | BV/TV in tibial epiphysis (micro-CT) [1]: improvement in subchondral bone mass and microstructure; also recorded: significant increase in BMD and BV/TV | amount of viral spike protein retained (subchondral bone marrow cavity) [1]: could reduce the amount of viral spike protein retained | articular cartilage structure [1]: did not lead to further improvement in articular cartilage structurally | chondrocyte dropout [1]: slight yet not significant improvement | cyst formation [1]: slight yet not significant improvement | expression level of vWF in bone marrow [1]: could effectively lower the expression level of vWF | number of SP7+ osteoblast progenitors [1]: increased the number of SP7^+ osteoblast progenitors | number of TRAP+ osteoclasts [1]: without affecting the number of TRAP^+ osteoclasts | number of senescent chondrocytes in articular cartilage (p16INK4a and HMGB1 staining) [1]: effectively lower the number of senescent chondrocytes | oxidative stress near vessels (4HNE staining) [1]: reduction of oxidative stress near vessels | trabecular number in tibial epiphysis (micro-CT) [1]: improvement in subchondral bone mass and microstructure | trabecular separation in tibial epiphysis (micro-CT) [1]: improvement in subchondral bone mass and microstructure | trabecular thickness in tibial epiphysis (micro-CT) [1]: improvement in subchondral bone mass and microstructure | SP RBD-induced cellular oxidative stress (CellROX staining) [2]: effectively lowered SARS-COV-2 spike protein-induced increase in oxidative stress | mitochondrial dynamics / morphology (MitoTracker staining) [2]: showed restoration of rod-like structures | 4HNE expression level in bone marrow cavity of subchondral bone (oxidative stress) [3]: lowered vWF and 4HNE expression level | BV/TV (micro-CT) [3]: no significant difference | amount of viral spike protein at local joint tissue (subchondral bone marrow cavity) [3]: tended to lower the amount of viral spike protein | area of the cysts at the osteochondral junction [3]: effectively reducing the area of the cysts | articular surface roughness [3]: No statistical significance | collagen loss (Masson's trichrome staining) [3]: prevented virus-induced collagen loss | fibrin exudate at the osteochondral junction [3]: decreasing the fibrin exudate | number of SP7+ osteoblasts progenitors [3]: without affecting the number of SP7^+ osteoblasts progenitors | number of TRAP+ osteoclasts in subchondral bone [3]: significantly lower number of TRAP^+ osteoclasts | number of chondrocytes in articular cartilage [3]: More chondrocytes were observed | number of cytoplasmic HMGB1 cells in articular cartilage [3]: decrease in the number of nuclear p16^INK4a and cytoplasmic HMGB1 cells | number of nuclear p16INK4a cells in articular cartilage [3]: decrease in the number of nuclear p16^INK4a | subchondral BMD (micro-CT) [3]: could restore subchondral BMD | vWF expression level in bone marrow cavity of subchondral bone [3]: lowered vWF and 4HNE expression level | SP RBD-induced subchondral bone loss (micro-CT, proximal epiphysis of tibia) [4]: rescue effect of macitentan on SP RBD-induced bone loss | accumulation of senescent chondrocytes (p16INK4a, HMGB1) in articular cartilage [4]: preventing accumulation of senescent chondrocytes | proteoglycan in articular cartilage (Safranin O/fast green) [4]: performed better in terms of preserving proteoglycan | paw withdrawal threshold / nociceptive tolerance (von Frey filament test) ([4]; ip, 0.3 mg/kg): able to attain the same nociceptive tolerance as high dose after 12 days | paw withdrawal threshold (von Frey filament test) ([4]; ip, 3 mg/kg): increase in paw withdrawal threshold after 5 days of treatment; also recorded: faster analgesic effect at the higher dose
